The results in this text go back to patent US8546383B2, “Chiral fused [1,2]imidazo[4,5-c] ring compounds” (3M Innovative Properties Company, priority 2004, dated 2013).

In turn, `c1ccc2c(c1)ncc1nc3n(c12)[C@@H](C1CCOCC1)COC3` [Example 42, (11S)-11-Tetrahydro-2H-pyran-4-yl-10,11-dihydro-8H-[1,4]oxazino[4′,3′:1,2]imidazo[4,5-c]quinoline] came in with a melting point of 234 to 237 °C.

In the case of `Nc1nc2ccccc2c2c1nc1n2[C@H](Cc2ccccc2)COC1` (hydrate or solvate) [Example 29], the melting point was 170 to 177 °C. The value for `C[C@H]1COCc2nc3c(N)nc4cc(CCC(=O)N(C)C)ccc4c3n21` [Example 64, 3-[(11S)-6-Amino-11-methyl-10,11-dihydro-8H-[1,4]oxazino[4′,3′:1,2]imidazo[4,5-c]quinolin-3-yl]-N,N-dimethylpropanamide] was 235 to 237 °C. The value for `Nc1nc2ccccc2c2c1nc1n2[C@@H](COCc2ccc(F)cc2)COC1` [Example 45, (11S)-11-{[(4-Fluorobenzyl)oxy]methyl}-10,11-dihydro-8H-[1,4]oxazino[4′,3′:1,2]imidazo[4,5-c]quinolin-6-amine] was 134 to 137 °C. The value for `CC(C)[C@H]1COCc2nc3c(N)nc4ccccc4c3n21` [Example 1, (11S)-1′-Isopropyl-10,11-dihydro-8H-[1,4]oxazino[4′,3′:1,2]imidazo[4,5-c]quinolin-6-amine] was 249 to 250 °C; that for `CC(C)[C@H]1COCc2nc3c(N)nc4ccc(OCc5ccccc5)cc4c3n21` [Example 19, (11S)-2-(Benzyloxy)-11-isopropyl-10,11-dihydro-8H-[1,4]oxazino[4′,3′:1,2]imidazo[4,5-c]quinolin-6-amine] was 139 to 141 °C. Regarding `CC(C)[C@H]1COCc2nc3c(N)nc4cc(O)ccc4c3n21` [Example 4, (11S)-6-Amino-11-isopropyl-10,11-dihydro-8H-[1,4]oxazino[4′,3′:1,2]imidazo[4,5-c]quinolin-3-ol], the melting point was 210 to 215 °C. `CC1CCOCc2nc3c(N)nc4cc(Br)ccc4c3n21` (stereo not shown) [Example 22, 3-Bromo-12-methyl-11,12-dihydro-8H,10H-[1,4]oxazepino[4′,3′:1,2]imidazo[4,5-c]quinolin-6-amine] displayed a melting point of 247 to 248 °C. The value for `C[C@H]1COCc2nc3c(N)nc4ccc(O)cc4c3n21` [Example 21, (11S)-6-Amino-11-methyl-10,11-dihydro-8H-[1,4]oxazino[4′,3′:1,2]imidazo[4,5-c]quinolin-2-ol] was 262 to 264 °C; that for `CC(C)[C@H]1COCc2nc3c(N)nc4c(c3n21)CCCC4` [Example 2, (11S)-11-Isopropyl-2,3,4,8,10,11-hexahydro-1H-[1,4]oxazino[4′,3′:1,2]imidazo[4,5-c]quinolin-6-amine] was 158 to 160 °C. The value for `C[C@@H](O)[C@H]1COCc2nc3c(N)nc4ccccc4c3n21` [Example 39, (1R)-1-[(11R)-6-Amino-10,11-dihydro-8H-[1,4]oxazino[4′,3′:1,2]imidazo[4,5-c]quinolin-11-yl]ethanol] was 215.3 to 218.6 °C; that for `CCOc1ccc2nc(N)c3nc4n(c3c2c1)[C@@H](C)COC4` [Example 57, (11S)-2-Ethoxy-11-methyl-10,11-dihydro-8H-[1,4]oxazino[4′,3′:1,2]imidazo[4,5-c]quinolin-6-amine] was 187 to 188 °C; that for `C[C@H]1CN(S(C)(=O)=O)Cc2nc3c(N)nc4ccccc4c3n21` [Example 23, (11S)-11-Methyl-9-(methylsulfonyl)-8,9,10,11-tetrahydropyrazino[1′,2′:1,2]imidazo[4,5-c]quinolin-6-amine] was 258 to 261 °C. The value for `CC(C)[C@@H]1COCc2nc3c(N)nc4ccccc4c3n21` [Example 25] was 248 to 249 °C; that for `CC(C)(O)[C@H]1COCc2nc3c(N)nc4ccccc4c3n21` [Example 13, 2-[(11R)-6-Amino-10,11-dihydro-8H-[1,4]oxazino[4′,3′:1,2]imidazo[4,5-c]quinolin-11-yl]propan-2-ol] was 216 to 217 °C; that for `CC(C)(O)[C@H]1COCc2nc3c(N)nc4cccnc4c3n21` [Example 33, 2-[(11R)-6-Amino-10,11-dihydro-8H-[1,4]oxazino[4′,3′:1,2]imidazo[4,5-c]-1,5-naphthyridin-11-yl]propan-2-ol] was 242 to 246 °C. Regarding `CC(C)[C@H]1COCc2nc3c(N)nc4ccc(O)cc4c3n21` [Example 20, (11S)-6-Amino-11-isopropyl-10,11-dihydro-8H-[1,4]oxazino[4′,3′:1,2]imidazo[4,5-c]quinolin-2-ol], the melting point is 208 to 210 °C. `C[C@H](O)[C@H]1COCc2nc3c(N)nc4ccccc4c3n21` [Example 41, (1S)-1-[(11R)-6-amino-10,11-dihydro-8H-[1,4]oxazino[4′,3′:1,2]imidazo[4,5-c]quinolin-1′-yl]ethanol]: the melting point lay within 207.6 to 208.7 °C. `CC(C)(F)[C@H]1COCc2nc3c(N)nc4c(c3n21)CCCC4` [Example 12, (11R)-11-(1-Fluoro-1-methylethyl)-2,3,4,8,10,11-hexahydro-1H-[1,4]oxazino[4′,3′:1,2]imidazo[4,5-c]quinolin-6-amine] returned a melting point of 195.5 to 197 °C. The value for `CC(C)(F)[C@H]1COCc2nc3c(N)nc4ccccc4c3n21` [Example 11, (11R)-11-(1-Fluoro-1-methylethyl)-10,11-dihydro-8H-[1,4]oxazino[4′,3′:1,2]imidazo[4,5-c]quinolin-6-amine] was 242 to 244 °C; that for `CC(C)[C@H]1COCc2nc3c(N)nc4cc(OCC(=O)N5CCOCC5)ccc4c3n21` [Example 58, (11S)-11-Isopropyl-3-(2-morpholin-4-yl-2-oxoethoxy)-10,11-dihydro-8H-[1,4]oxazino[4′,3′:1,2]imidazo[4,5-c]quinolin-6-amine] was 137 to 139 °C. Consider `Nc1nc2ccccc2c2c1nc1n2[C@@H](CO)COC1` [Example 35, [(11S)-6-Amino-10,11-dihydro-8H-[1,4]oxazino[4′,3′:1,2]imidazo[4,5-c]quinolin-11-yl]methanol], for which the melting point lay in the range of 238.6 to 239.8 °C. The value for `C[C@H]1COCc2nc3c(N)nc4cc(CCC(=O)N5CCOCC5)ccc4c3n21` [Example 63, (11S)-11-Methyl-3-(3-morpholin-4-yl-3-oxopropyl)-10,11-dihydro-8H-[1,4]oxazino[4′,3′:1,2]imidazo[4,5-c]quinolin-6-amine] was 245 to 247 °C; that for `C[C@H]1COCc2nc3c(N)nc4ccc(OCCN5CCOCC5)cc4c3n21` [Example 56, (11S)-11-Methyl-2-(2-morpholin-4-ylethoxy)-10,11-dihydro-8H-[1,4]oxazino[4′,3′:1,2]imidazo[4,5-c]quinolin-6-amine] was 186 to 188 °C; that for `C[C@H]1COCc2nc3c(N)nc4cc(O)ccc4c3n21` [Example 8, (11S)-6-Amino-11-methyl-10,11-dihydro-8H-[1,4]oxazino[4′,3′:1,2]imidazo[4,5-c]quinolin-3-ol] was more than 250 °C.
